Measurements published in ChEMBL document CHEMBL6096670, “Design, synthesis and biological evaluation of novel β-carbolines as antitumor agents via targeting autophagy in colorectal cancer” (Eur J Med Chem, 2025).

Experiments:
A-375 = experiment: Antiproliferative activity against human A-375 cells assessed as inhibition of cell growth incubated for 48 hrs by MTT assay; assay type: functional, cell-based; conditions: A-375, 48 h
HT-29 = experiment: Antiproliferative activity against human HT-29 cells assessed as inhibition of cell growth incubated for 48 hrs by MTT assay; assay type: functional, cell-based; conditions: HT-29, 48 h
HepG2 = experiment: Antiproliferative activity against human HepG2 cells assessed as inhibition of cell growth incubated for 48 hrs by MTT assay; assay type: functional, cell-based; conditions: HepG2, 48 h
CWR22R = experiment: Antiproliferative activity against human 22Rv1 cells assessed as inhibition of cell growth incubated for 48 hrs by MTT assay; assay type: functional, cell-based; conditions: 22Rv1, 48 h
786-0 = experiment: Antiproliferative activity against human 786-0 cells assessed as inhibition of cell growth incubated for 48 hrs by MTT assay; assay type: functional, cell-based; conditions: 786-0, 48 h
BGC-823 = experiment: Antiproliferative activity against human BGC-823 cells assessed as inhibition of cell growth incubated for 48 hrs by MTT assay; assay type: functional, cell-based; conditions: BGC-823, 48 h
MCF7 = experiment: Antiproliferative activity against human MCF7 cells assessed as inhibition of cell growth incubated for 48 hrs by MTT assay; assay type: functional, cell-based; conditions: MCF7, 48 h
SK-OV-3 = experiment: Antiproliferative activity against human SK-OV-3 cells assessed as inhibition of cell growth incubated for 48 hrs by MTT assay; assay type: functional, cell-based; conditions: SK-OV-3, 48 h
HCT-116 [1] = experiment: Induction of apoptosis in human HCT-116 assessed as early apoptotic cells at 100 uM pretreated with Z-VAD-FMK for 30 mins followed by compound addition and measured after 24 hrs by Annexin V-FITC/PI double staining based flow cytometry (reference value: […]); assay type: functional
HCT-116 [2] = experiment: Induction of apoptosis in human HCT-116 assessed as late apoptotic cells at 100 uM incubated for 24 hrs Annexin V FITC/PI double staining based flow cytometry (reference value: 8.02 %); assay type: functional
HCT-116 [3] = experiment: Induction of apoptosis in human HCT-116 assessed as necrotic cells at 100 uM pretreated with Z-VAD-FMK for 30 mins followed by compound addition and measured after 24 hrs by Annexin V-FITC/PI double staining based flow cytometry (reference value: 0.84 %); assay type: functional
HCT-116 [4] = experiment: Induction of apoptosis in human HCT-116 assessed as early apoptotic cells at 100 uM incubated for 24 hrs Annexin V FITC/PI double staining based flow cytometry (reference value: 1.07 %); assay type: functional
HCT-116 [5] = experiment: Induction of apoptosis in human HCT-116 assessed as late apoptotic cells at 100 uM pretreated with Z-VAD-FMK for 30 mins followed by compound addition and measured after 24 hrs by Annexin V-FITC/PI double staining based flow cytometry (reference value: 7.43 %); assay type: functional
HCT-116 [6] = experiment: Induction of apoptosis in human HCT-116 assessed as necrotic cells at 100 uM incubated for 24 hrs Annexin V FITC/PI double staining based flow cytometry (reference value: 0.94 %); assay type: functional
HCT-116 [7] = experiment: Induction of apoptosis in human HCT-116 assessed as viable cells at 100 uM pretreated with Z-VAD-FMK for 30 mins followed by compound addition and measured after 24 hrs by Annexin V-FITC/PI double staining based flow cytometry (reference value: 90.8%); assay type: functional; conditions: read-out: Activity
HCT-116 [8] = experiment: Induction of apoptosis in human HCT-116 assessed as viable cells at 100 uM incubated for 24 hrs Annexin V FITC/PI double staining based flow cytometry (Rvb =90.0%); assay type: functional; conditions: read-out: Activity

SMILES	IC50 (A-375)	IC50 (HT-29)	IC50 (HepG2)	IC50 (CWR22R)	IC50 (786-0)	IC50 (BGC-823)	IC50 (MCF7)	IC50 (SK-OV-3)	Activity (HCT-116 [1])	Activity (HCT-116 [2])	Activity (HCT-116 [3])	Activity (HCT-116 [4])	Activity (HCT-116 [5])	Activity (HCT-116 [6])	viability at 100 µM (HCT-116 [7])	viability at 100 µM (HCT-116 [8])
CCN(CC)CCCNCc1cc2c3ccccc3n(Cc3ccc(F)cc3)c2c(CNCCCN(CC)CC)n1	4.82 µM	5.81 µM	5.68 µM	9.22 µM	5.42 µM	8.81 µM	6.92 µM	7.85 µM								
O=c1[nH]cc(F)c(=O)[nH]1 [FLUOROURACIL]									3.01%	15.2%	4.13%	39.6%	17.3%	1.62%	75.5%	43.6%
CCN(CC)CCCNCc1cc2c3ccccc3n(Cc3ccccc3)c2c(CNCCCN(CC)CC)n1	7.83 µM	5.54 µM	14.3 µM	11.2 µM	10.6 µM	7.24 µM	15.2 µM	9.62 µM								
CCN(CC)CCCNCc1cc2c3ccccc3n(C)c2c(CNCCCN(CC)CC)n1	> 20 µM	8.62 µM	> 20 µM	12.6 µM	14.2 µM	16.8 µM	> 20 µM	> 20 µM								
CCCCn1c2ccccc2c2cc(CNCCCN(CC)CC)nc(CNCCCN(CC)CC)c21	15.8 µM	8.03 µM	15.6 µM	8.24 µM	9.32 µM	11.2 µM	10.5 µM	15.8 µM								
CCN(CC)CCCNCc1cc2c([nH]c3ccccc32)c(CNCCCN(CC)CC)n1	> 20 µM	12.7 µM	> 20 µM	16.1 µM	14.9 µM	> 20 µM	> 20 µM	> 20 µM								
